According to patent EP0437336B1, “Biophosphoryl hydrazines and their use as pesticides” (priority 1990, dated 1991):
Converted amounts (≈) assume the structure as drawn. Where two headings read alike, the source gives them in different places.

Assays:
Two-Spotted Spider Mite = assay: Biological Method D: Foliar Insecticidal Activity Test, mite test; format: in vivo, Tetranychus urticae; set-up: key to LC50 TSM: I = inactive at concentration listed; settings: Two-Spotted Spider Mite; for LC50: Tetranychus urticae
Green Peach Aphid [1] = assay: Biological Method D: Foliar Insecticidal Activity Test, aphid test; format: in vivo, Myzus persicae; settings: Myzus persicae, Green Peach Aphid
Description: (§1) Biological Method D: Foliar Insecticidal Activity Test
(§2) In evaluating the foliar insecticidal activity of the compounds of this invention against insects and mites, the following test procedures were employed.
(§3) Not all compounds were tested at each of the several concentrations stated above. Test concentrations of a compound were selected as those most likely to differentiate dose response of a particular compound toward a particular test insect.
(§4) Initial evaluations were made on one or more of the following pests:
(§5) For the aphid test, infested broccoli (Brassica oleracea italica var. DiCicco) leaves containing about 50 aphids were placed in a Petri dish lid on a moistened piece of cotton. The leaves were then sprayed to thorough wetness with the test solution using a rotating turntable, held for twenty-four hours and then the percentage killed was determined.
(§6) The mortalities obtained in this manner were plotted on logarithmic probability paper.
(§7) The rotating turntable consists of a fixed, continuously operating spray nozzle under which targets are rotated at a fixed speed and distance. If the target is a Petri dish (such as for the bean beetle, armyworm, mite, or aphid tests), the distance from the nozzle is 38.1 cm (15 inches). If the target is a Mason jar (such as for the boll weevil test), the distance from the nozzle is 17.8 cm (7 inches). The nozzle is located 8 inches from the rotating shaft. The targets on individual platforms revolve around the shaft at 1 revolution per 20 seconds but only a brief portion of this time occurs in the spray path. Targets pass only once under the nozzle and then are removed to drying hoods.
(§8) The nozzle used is a 1/4 JCO Spraying Systems (Wheaton, Illinois) air atomizing nozzle equipped with a No. 2850 fluid cap and a No. 70 air cap. At the 68.95 x 10³ Pa gauge (10 psig) air pressure used and with liquid siphon feed, 1.89 ℓ/hr [0.5 GPH (gallons per hour)] are delivered in a round spray pattern with a 21 degree spray angle. Targets are misted with spray droplets to the point that the droplets coalesce to form a uniform thin film insufficient to drown test organisms.

Mexican Bean Beetle = assay: Biological Method D: Foliar Insecticidal Activity Test, Mexican Bean Beetle test; format: in vivo, Epilachna varivestis; settings: Epilachna varivestis, Mexican Bean Beetle
Southern Armyworm [2] = assay: Biological Method D: Foliar Insecticidal Activity Test, Southern Armyworm test; format: in vivo, Spodoptera eridania; settings: Spodoptera eridania, Southern Armyworm
Description: as §1, §2, §3, §4
(§9) For the Mexican Bean Beetle and Southern armyworm tests, individual lima bean (Phaseolus limeniss var. Woods' Prolific) leaves were placed on moistened pieces of filter paper in Petri dishes. The leaves were then sprayed with the test solution using a rotating turntable and allowed to dry. The dishes were then infested with 10 third instar larvae of either the Mexican Been Beetle or the Southern Armyworm. The dishes were then covered. Percent mortality was determined for each species and spray concentration at 48 and 96 hours after treatment.
as §6, §7, §8

Boll Weevil [3] = assay: Biological Method D: Foliar Insecticidal Activity Test, boll weevil test; format: in vivo, Anthonomous grandis; set-up: key: I = inactive at concentration tested; settings: compounds a-r
Description: as §1, §2, §3, §4
For the boll weevil test, 10 adult weevils were placed in a 0.24 ℓ (0.5 pint) glass Mason jar containing a small cube of apple. The weevils were confined to the jar by fiberglass screen mesh secured by a screw-type rim cap. The jars were then sprayed with the test solution using a rotating turntable; directing the spray through the mesh into the jar. The percentage killed was determined after forty-eight and ninety six hours.
as §6, §7, §8

Southern Armyworm [4] = assay: Biological Method D: Foliar Insecticidal Activity Test, Southern Armyworm test; format: in vivo, Spodoptera eridania; set-up: key: I = inactive at concentration listed
Boll Weevil [5] = assay: Biological Method D: Foliar Insecticidal Activity Test, boll weevil test; format: in vivo, Anthonomous grandis; set-up: key: I = inactive at concentration listed
[6] = test system: southern corn rootworm, Diabrotica undecimpunctata howardi; settings: percent control relative to infested check, from root damage ratings; 14 days post-spraying
[7] = test system: southern corn rootworm, Diabrotica undecimpunctata howardi; assay: Biological Method A: Corn Rootworm Screening Test (treated non-aggressive soil); settings: soil concentration giving 90% mortality, 10 days at 27°C
Boll Weevil [8] = assay: Biological Method D: Foliar Insecticidal Activity Test, boll weevil test; format: in vivo, Anthonomous grandis; settings: Boll Weevil, compounds a-r
Southern Armyworm [9] = assay: Biological Method D: Foliar Insecticidal Activity Test, Southern Armyworm test; format: in vivo, Spodoptera eridania; set-up: key: I = inactive at concentration tested; settings: compounds a-r
Description: as §1, §2, §3, §4, §9, §6, §7, §8

Green Peach Aphid [10] = assay: Biological Method D: Foliar Insecticidal Activity Test, aphid test; format: in vivo, Myzus persicae; set-up: key: I = inactive at concentration tested; settings: compounds a-r
Description: as §1, §2, §3, §4, §5, §6, §7, §8

Green Peach Aphid [11] = assay: as above; format: in vivo, Myzus persicae; set-up: key: I = inactive at concentration listed
[12] = test system: southern corn rootworm, Diabrotica undecimpunctata howardi; settings: at-planting soil application
[13] = foliar, compounds a-r, read-out: LC 50 TSM
[14] = foliar, 48 hrs, compounds a-r, read-out: LC 50 BB 48 hrs.
[15] = foliar, 96 hrs, compounds a-r, read-out: LC 50 BB 96 hrs.
[16] = foliar, 48 hrs, compounds a-r, read-out: LC 50 AW 48 hrs.
[17] = foliar, 96 hrs, compounds a-r, read-out: LC 50 AW 96 hrs.
[18] = Method D foliar test, read-out: LC50 TSM
[19] = Method D foliar test, 96 hrs, read-out: LC50 AW 96 hrs

| Compound | LC50 (Two-Spotted Spider Mite; [13]) [mg/L] | LC50 (Green Peach Aphid [1]; foliar, compounds a-r) [mg/L] | LC50 (Mexican Bean Beetle; [14]) [mg/L] | LC50 (Mexican Bean Beetle; [15]) [mg/L] | LC50 BW 48 hrs (Boll Weevil [3]) | LC50 BW 96 hrs (Boll Weevil [3]) | LC50 BW 48 hrs (Boll Weevil [5]) | LC50 BW 96 hrs (Boll Weevil [5]) | foliar systemic nonagressive Method B crw % control at 0.56 kg/ha (0.5 lb/acre) [6] [%] | primary nonagressive Method A crw LC90 [7] [ppm] | LC50 AW 48 hrs (Southern Armyworm [9]) | LC50 AW 96 hrs (Southern Armyworm [9]) | also measured |
| --- | --- | --- | --- | --- | --- | --- | --- | --- | --- | --- | --- | --- | --- |
| CCCOP(=S)(NN(C)P(=S)(OCC)OCC)OCC (stereo not drawn) [c, N-(O,O-diethylthiophosphoryl) N′-(O-ethyl O-propylthiophosphoryl) N-methyl hydrazine] | 150 (≈ 412 µM) | 290 (≈ 796 µM) | 150 (≈ 412 µM) | 150 (≈ 412 µM) | I | I |  |  |  |  |  |  | LC50 (Southern Armyworm [2]; [16]): 150 mg/L (≈ 412 µM); LC50 (Southern Armyworm [2]; [17]): 150 mg/L (≈ 412 µM) |
| CCOP(=O)(NNP(=S)(OCC)OCC)OCC [Compound 2, reference compound] |  |  |  |  |  |  | I | I | 0 | 0.87 |  |  | LC50 (Two-Spotted Spider Mite; [18]): 540 mg/L (≈ 1690 µM); LC50 (Green Peach Aphid [1]; Method D foliar test): 150 mg/L (≈ 468 µM); LC50 AW 48 hrs (Southern Armyworm [4]): I; LC50 AW 96 hrs (Southern Armyworm [4]; 96 hrs): I |
| CCOP(=S)(OCC)N(C)N(C)P(=S)(OCC)OC(C)C (stereo not drawn) [b, N-(O,O-diethylthiophosphoryl) N′-(O-ethyl O-isopropylthiophosphoryl) N,N′-dimethyl hydrazine] | 5.5 (≈ 14.5 µM) | 36 (≈ 95.1 µM) | 150 (≈ 396 µM) | 150 (≈ 396 µM) |  |  |  |  |  |  | I | I | LC50 BW 48 hrs (Boll Weevil [8]; 48 hrs): 740 ppm; LC50 BW 96 hrs (Boll Weevil [8]; 96 hrs): 150 ppm |
| CCOP(=S)(NN(C)P(=S)(OCC)OCC)OCC [a, N,N′-bis-(O,O-diethylthiophosphoryl) N-methyl hydrazine] | 150 (≈ 428 µM) | 150 (≈ 428 µM) | 500 (≈ 1430 µM) | 420 (≈ 1200 µM) | I | I |  |  |  |  |  |  | LC50 (Southern Armyworm [2]; [16]): 150 mg/L (≈ 428 µM); LC50 (Southern Armyworm [2]; [17]): 150 mg/L (≈ 428 µM) |
| CCOP(=O)(SC(C)CC)N(C)NP(=S)(OCC)OCC(C)(C)C (stereo not drawn) [k] |  | 300 (≈ 713 µM) |  | 52 (≈ 124 µM) | I | I |  |  |  |  | I | I |  |
| CCOP(=S)(NN(C)P(=S)(OCC)OC(C)C)OCC (stereo not drawn) [q] |  |  | 300 (≈ 823 µM) | 72 (≈ 198 µM) |  | I |  |  |  |  | I | I | LC50 GPA (Green Peach Aphid [10]): I |
| CCCOP(=S)(NNP(=S)(OCC)OCCC)OCC (stereo not drawn) [Compound 29, reference compound] |  |  |  |  |  |  | I | I | 38 | 0.09 |  |  | LC50 (Two-Spotted Spider Mite; [18]): 150 mg/L (≈ 412 µM); LC50 (Mexican Bean Beetle; Method D foliar test, 48 hrs, read-out: LC50 BB 48 hrs.): 150 mg/L (≈ 412 µM); LC50 (Mexican Bean Beetle; Method D foliar test, 96 hrs, read-out: LC50 BB 96 hrs): 150 mg/L (≈ 412 µM); LC50 (Southern Armyworm [2]; Method D foliar test, 48 hrs, read-out: LC50 AW 48 hrs): 420 mg/L (≈ 1150 µM); LC50 (Southern Armyworm [2]; [19]): 180 mg/L (≈ 494 µM); LC50 GPA (Green Peach Aphid [11]): I; secondary aggressive Method C crw LC50 ([12]; rated 17 days post-infestation): ~3.03 kg/ha; secondary aggressive Method C crw LC50 ([12]; value in brackets): ~2.7 lb/acre |
| CCOP(=S)(NNP(=S)(OCC)OCC)OCC [Compound 1, reference compound] |  |  |  |  |  |  | I | I | 16 | 0.5 |  |  | LC50 TSM (Two-Spotted Spider Mite; Method D foliar test): I; LC50 (Green Peach Aphid [1]; Method D foliar test): 500 mg/L (≈ 1490 µM); LC50 (Southern Armyworm [2]; [19]): 500 mg/L (≈ 1490 µM); LC50 AW 48 hrs (Southern Armyworm [4]): I |
| CCCOP(=S)(NN(C)P(=S)(OCC)OCC)OCCC [d] | 150 (≈ 396 µM) |  | 150 (≈ 396 µM) | 150 (≈ 396 µM) | I | I |  |  |  |  | I | I | LC50 GPA (Green Peach Aphid [10]): I |
